Test results: PubChem BioAssay (NCI)
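Assay format: 96-well plates, 48-hour exposure. At the GI50, growth is halved. At the TGI there is no net growth.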

Columns and labels:
Test in all cases: NCI-60 cell line screen, 48 h
PC-3 prostate = system: PC-3 prostate
SNB-19 CNS = system: SNB-19 CNS
NCI-H23 lung = system: NCI-H23 lung
HCT-15 colon = system: HCT-15 colon
KM12 colon = system: KM12 colon
SK-MEL-2 melanoma = system: SK-MEL-2 melanoma
SF-295 CNS = system: SF-295 CNS
OVCAR-8 ovarian = system: OVCAR-8 ovarian
BT-549 breast = system: BT-549 breast
NCI-H226 lung = system: NCI-H226 lung
HOP-62 NSCLC = system: HOP-62 NSCLC
EKVX NSCLC = system: EKVX NSCLC
TK-10 renal = system: TK-10 renal
786-0 renal = system: 786-0 renal
SK-OV-3 ovarian = system: SK-OV-3 ovarian
ACHN renal = system: ACHN renal
CAKI-1 renal = system: CAKI-1 renal
SR leukemia = system: SR leukemia
U251 CNS = system: U251 CNS
NCI/ADR-RES ovarian = system: NCI/ADR-RES ovarian
MCF7 breast = system: MCF7 breast
OVCAR-3 ovarian = system: OVCAR-3 ovarian
A549 NSCLC = system: A549 NSCLC
MDA-MB-231 breast = system: MDA-MB-231 breast
NCI-H460 lung = system: NCI-H460 lung
RXF 393 renal = system: RXF 393 renal
SK-MEL-28 melanoma = system: SK-MEL-28 melanoma
MALME-3M melanoma = system: MALME-3M melanoma
SF-268 CNS = system: SF-268 CNS
SW-620 colon = system: SW-620 colon
SN12C renal = system: SN12C renal
HL-60(TB) leukemia = system: HL-60(TB) leukemia
CCRF-CEM leukemia = system: CCRF-CEM leukemia
SF-539 CNS = system: SF-539 CNS
HS 578T breast = system: HS 578T breast
SK-MEL-5 melanoma = system: SK-MEL-5 melanoma
K-562 leukemia = system: K-562 leukemia
A498 renal = system: A498 renal
OVCAR-5 ovarian = system: OVCAR-5 ovarian
HT29 colon = system: HT29 colon
HCT-116 colon = system: HCT-116 colon
LOX IMVI melanoma = system: LOX IMVI melanoma
UACC-257 melanoma = system: UACC-257 melanoma
RPMI-8226 leukemia = system: RPMI-8226 leukemia
IGROV1 ovarian = system: IGROV1 ovarian
T-47D breast = system: T-47D breast
M14 melanoma = system: M14 melanoma
UACC-62 melanoma = system: UACC-62 melanoma
UO-31 renal = system: UO-31 renal
HOP-92 NSCLC = system: HOP-92 NSCLC
MDA-MB-435 = system: MDA-MB-435
COLO 205 colon = system: COLO 205 colon
SNB-75 CNS = system: SNB-75 CNS
DU-145 prostate = system: DU-145 prostate
NCI-H522 lung = system: NCI-H522 lung
MOLT-4 leukemia = system: MOLT-4 leukemia
OVCAR-4 ovarian = system: OVCAR-4 ovarian
HCC-2998 colon = system: HCC-2998 colon

CCN(CC)c1ccc(/C=N/N=C(N)N)cc1
GI50 (PC-3 prostate): 3.51 µM | TGI (PC-3 prostate): 92.9 µM | GI50 (SNB-19 CNS): 3.57 µM | TGI (SNB-19 CNS): 23.8 µM | GI50 (NCI-H23 lung): 4.59 µM | TGI (NCI-H23 lung): 50.6 µM | GI50 (HCT-15 colon): 4.76 µM | TGI (HCT-15 colon): 55.8 µM | GI50 (KM12 colon): 3.47 µM | TGI (KM12 colon): 16.4 µM | GI50 (SK-MEL-2 melanoma): 2.85 µM | TGI (SK-MEL-2 melanoma): 8.33 µM | GI50 (SF-295 CNS): 3.59 µM | TGI (SF-295 CNS): 15.8 µM | GI50 (OVCAR-8 ovarian): 5.06 µM | TGI (OVCAR-8 ovarian): 23.5 µM | GI50 (BT-549 breast): 6.84 µM | TGI (BT-549 breast): 33.9 µM | GI50 (NCI-H226 lung): 3.84 µM | TGI (NCI-H226 lung): 22.8 µM | GI50 (HOP-62 NSCLC): 4.65 µM | TGI (HOP-62 NSCLC): 21.3 µM | GI50 (EKVX NSCLC): 7.59 µM | TGI (EKVX NSCLC): 93.8 µM | GI50 (TK-10 renal): 7.87 µM | TGI (TK-10 renal): 28.4 µM | GI50 (786-0 renal): 6.2 µM | TGI (786-0 renal): 20.7 µM | GI50 (SK-OV-3 ovarian): 3.47 µM | TGI (SK-OV-3 ovarian): 14 µM | GI50 (ACHN renal): 12.8 µM | TGI (ACHN renal): 64.8 µM | GI50 (CAKI-1 renal): 6.73 µM | TGI (CAKI-1 renal): > 100 µM | GI50 (SR leukemia): 2.03 µM | TGI (SR leukemia): 15 µM | GI50 (U251 CNS): 5.49 µM | TGI (U251 CNS): 23.4 µM | GI50 (NCI/ADR-RES ovarian): 5.44 µM | TGI (NCI/ADR-RES ovarian): 29.8 µM | GI50 (MCF7 breast): 2.62 µM | TGI (MCF7 breast): 14.8 µM | GI50 (OVCAR-3 ovarian): 2.21 µM | TGI (OVCAR-3 ovarian): 4.91 µM | GI50 (A549 NSCLC): 4.99 µM | TGI (A549 NSCLC): > 100 µM | GI50 (MDA-MB-231 breast): 10.9 µM | TGI (MDA-MB-231 breast): 32.6 µM | GI50 (NCI-H460 lung): 3.57 µM | TGI (NCI-H460 lung): 15.1 µM | GI50 (RXF 393 renal): 2.85 µM | TGI (RXF 393 renal): 11.7 µM | GI50 (SK-MEL-28 melanoma): 6.27 µM | TGI (SK-MEL-28 melanoma): 20.3 µM | GI50 (MALME-3M melanoma): 4.45 µM | TGI (MALME-3M melanoma): 18.7 µM | GI50 (SF-268 CNS): 5.43 µM | TGI (SF-268 CNS): 82.5 µM | GI50 (SW-620 colon): 3.08 µM | TGI (SW-620 colon): 13.6 µM | GI50 (SN12C renal): 4.88 µM | TGI (SN12C renal): 27.2 µM | GI50 (HL-60(TB) leukemia): 2.84 µM | TGI (HL-60(TB) leukemia): 7.95 µM | GI50 (CCRF-CEM leukemia): 3.5 µM | TGI (CCRF-CEM leukemia): 67.7 µM | GI50 (SF-539 CNS): 5.06 µM | TGI (SF-539 CNS): 30.5 µM | GI50 (HS 578T breast): 3.68 µM | TGI (HS 578T breast): 26.5 µM | GI50 (SK-MEL-5 melanoma): 3.16 µM | TGI (SK-MEL-5 melanoma): 13.4 µM | GI50 (K-562 leukemia): 3.02 µM | TGI (K-562 leukemia): 16.4 µM | GI50 (A498 renal): 2.25 µM | TGI (A498 renal): 21.9 µM | GI50 (OVCAR-5 ovarian): 17.1 µM | TGI (OVCAR-5 ovarian): > 100 µM | GI50 (HT29 colon): 3.24 µM | TGI (HT29 colon): 10.8 µM | GI50 (HCT-116 colon): 4.85 µM | TGI (HCT-116 colon): 18.5 µM | GI50 (LOX IMVI melanoma): 5.02 µM | TGI (LOX IMVI melanoma): 19.9 µM | GI50 (UACC-257 melanoma): 5.2 µM | TGI (UACC-257 melanoma): 23.9 µM | GI50 (RPMI-8226 leukemia): 2.84 µM | TGI (RPMI-8226 leukemia): 13.3 µM | GI50 (IGROV1 ovarian): 8.11 µM | TGI (IGROV1 ovarian): 55.1 µM | GI50 (T-47D breast): 3.76 µM | TGI (T-47D breast): 24.5 µM | GI50 (M14 melanoma): 4 µM | TGI (M14 melanoma): 17 µM | GI50 (UACC-62 melanoma): 4.23 µM | TGI (UACC-62 melanoma): 18.1 µM | GI50 (UO-31 renal): 6.78 µM | TGI (UO-31 renal): 38.9 µM | GI50 (HOP-92 NSCLC): 2.27 µM | TGI (HOP-92 NSCLC): 13.5 µM | GI50 (MDA-MB-435): 0.668 µM | TGI (MDA-MB-435): 3.04 µM | GI50 (COLO 205 colon): 1.79 µM | TGI (COLO 205 colon): 3.51 µM | GI50 (SNB-75 CNS): 3.74 µM | TGI (SNB-75 CNS): > 100 µM | GI50 (DU-145 prostate): 4.3 µM | TGI (DU-145 prostate): 28.2 µM | GI50 (NCI-H522 lung): 1.91 µM | TGI (NCI-H522 lung): 4.8 µM | GI50 (MOLT-4 leukemia): 4.95 µM | TGI (MOLT-4 leukemia): 35.7 µM | GI50 (OVCAR-4 ovarian): 5.74 µM | TGI (OVCAR-4 ovarian): 39.5 µM | GI50 (HCC-2998 colon): 4.68 µM | TGI (HCC-2998 colon): 17.3 µM
